From patent publication US11596622B2, “Mazindol treatment for heroin dependence and substance use disorder” (NLS Pharmaceutics AG, priority 2017, dated 2023)

Assays:
[1] = test system: cocaine abuse and dependence; conditions: studies (7, 8); vs. placebo; cited from earlier work
[2] = molecular target: T1, 5-HT transporter(h) (Homo sapiens, UniProt P31645); assay: Radioligand binding, 5-HT transporter (Eurofins CEREP); conditions: 1.0 × 10^−05 M; antagonist radioligand; read-out: percent inhibition of the binding of a radioactively labeled ligand
T1 construct: Eurofins CEREP
Description: (§1) Table A discloses mazindol and Met tested at […] and the compound binding calculated as a percent inhibition of the binding of a radioactively labeled ligand specific for each target (Eurofins CEREP, France).
(§2) An inhibition or stimulation of more than 50% is considered a significant effect of the test compounds. Fifty percent is a common cut-off for further investigation (i.e. determination of IC50 or EC50 values from concentration-response curves).
(§3) The results are expressed as a percent of control specific binding obtained in the presence of the test compounds:
(§4) [formula] and as a percent inhibition of control specific binding obtained in the presence of the test compounds: […]

[3] = molecular target: T2, Dopamine transporter(h) (Homo sapiens, UniProt Q01959); assay: Radioligand binding, dopamine transporter (Eurofins CEREP); conditions: 1.0 × 10^−05 M; antagonist radioligand; read-out: percent inhibition of the binding of a radioactively labeled ligand
T2 construct: Eurofins CEREP
Description: as §1, §2, §3, §4

[4] = molecular target: T3, 5-HT1A(h) (Homo sapiens, UniProt P08908); assay: Radioligand binding, 5-HT1A (Eurofins CEREP); conditions: 1.0 × 10^−05 M; agonist radioligand; read-out: percent inhibition of the binding of a radioactively labeled ligand
T3 construct: Eurofins CEREP
T3 sequence (P08908 1-422): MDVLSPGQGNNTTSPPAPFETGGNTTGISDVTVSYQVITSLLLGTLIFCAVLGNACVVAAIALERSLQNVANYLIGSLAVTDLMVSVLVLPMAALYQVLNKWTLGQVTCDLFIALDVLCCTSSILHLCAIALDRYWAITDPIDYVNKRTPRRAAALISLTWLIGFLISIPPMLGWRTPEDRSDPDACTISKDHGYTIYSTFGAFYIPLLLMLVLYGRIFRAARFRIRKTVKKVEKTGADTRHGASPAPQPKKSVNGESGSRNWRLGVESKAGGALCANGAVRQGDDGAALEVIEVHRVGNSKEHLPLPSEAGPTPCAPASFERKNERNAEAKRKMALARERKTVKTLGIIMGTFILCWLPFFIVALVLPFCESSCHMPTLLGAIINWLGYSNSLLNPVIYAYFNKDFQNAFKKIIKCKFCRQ
Description: as §1, §2, §3, §4

[5] = molecular target: T4, k (KOP) (Rattus norvegicus, UniProt P34975); assay: Radioligand binding, κ opioid receptor (Eurofins CEREP)
T4 construct: Eurofins CEREP
Description: as §1
as §2, with “curves). Tables B and C display the binding profiles for Mazindol and Met.” for “curves).”
as §3, §4

T1 sequence (P31645 whole entry): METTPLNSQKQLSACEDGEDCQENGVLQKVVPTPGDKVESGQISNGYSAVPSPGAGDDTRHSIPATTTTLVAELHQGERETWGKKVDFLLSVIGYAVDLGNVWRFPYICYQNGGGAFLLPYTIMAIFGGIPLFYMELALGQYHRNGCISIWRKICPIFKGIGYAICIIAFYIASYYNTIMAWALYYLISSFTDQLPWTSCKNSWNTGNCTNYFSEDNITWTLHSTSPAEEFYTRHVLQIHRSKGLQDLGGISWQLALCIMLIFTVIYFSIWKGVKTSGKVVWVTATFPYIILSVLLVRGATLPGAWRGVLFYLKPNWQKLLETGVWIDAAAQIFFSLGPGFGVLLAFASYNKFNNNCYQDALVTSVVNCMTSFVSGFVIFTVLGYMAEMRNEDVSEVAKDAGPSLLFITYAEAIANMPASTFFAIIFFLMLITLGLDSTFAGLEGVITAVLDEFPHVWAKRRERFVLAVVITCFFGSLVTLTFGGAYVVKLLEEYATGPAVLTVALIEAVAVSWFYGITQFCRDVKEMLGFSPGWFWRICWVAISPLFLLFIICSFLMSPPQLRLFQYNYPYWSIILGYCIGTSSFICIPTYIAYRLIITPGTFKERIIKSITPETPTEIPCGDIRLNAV
T4 sequence (P34975 whole entry): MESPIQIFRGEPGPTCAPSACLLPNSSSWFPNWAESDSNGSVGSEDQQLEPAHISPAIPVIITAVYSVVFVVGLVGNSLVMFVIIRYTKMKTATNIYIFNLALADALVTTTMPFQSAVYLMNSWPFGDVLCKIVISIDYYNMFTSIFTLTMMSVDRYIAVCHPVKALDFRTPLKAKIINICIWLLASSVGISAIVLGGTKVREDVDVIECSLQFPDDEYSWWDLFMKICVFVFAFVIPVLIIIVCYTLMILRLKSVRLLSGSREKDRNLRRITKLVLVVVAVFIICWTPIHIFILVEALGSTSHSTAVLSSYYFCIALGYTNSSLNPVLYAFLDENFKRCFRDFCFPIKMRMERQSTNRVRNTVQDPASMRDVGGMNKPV
T2 sequence (Q01959 whole entry): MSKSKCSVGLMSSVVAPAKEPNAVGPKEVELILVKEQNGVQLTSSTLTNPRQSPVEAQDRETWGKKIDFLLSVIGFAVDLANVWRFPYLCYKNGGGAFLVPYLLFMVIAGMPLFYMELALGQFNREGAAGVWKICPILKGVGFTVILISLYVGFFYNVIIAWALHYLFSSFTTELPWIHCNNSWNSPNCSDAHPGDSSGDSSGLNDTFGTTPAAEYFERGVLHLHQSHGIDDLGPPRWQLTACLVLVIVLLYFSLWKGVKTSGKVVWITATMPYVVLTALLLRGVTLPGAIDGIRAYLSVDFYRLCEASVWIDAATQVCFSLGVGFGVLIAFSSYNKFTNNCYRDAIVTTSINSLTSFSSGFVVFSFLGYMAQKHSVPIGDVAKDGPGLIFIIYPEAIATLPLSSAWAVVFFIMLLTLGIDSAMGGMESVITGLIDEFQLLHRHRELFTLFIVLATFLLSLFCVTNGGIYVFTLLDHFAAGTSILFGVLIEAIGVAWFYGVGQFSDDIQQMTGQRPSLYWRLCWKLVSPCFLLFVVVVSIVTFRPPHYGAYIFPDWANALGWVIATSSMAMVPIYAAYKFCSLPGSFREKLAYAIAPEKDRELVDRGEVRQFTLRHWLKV

OC1(c2ccc(Cl)cc2)c2ccccc2C2=NCCN21 (centres unmarked) [Mazindol, 5-(4-chlorophenyl)-2,5-dihydro-3 H-imadazo[2,1-a]isoindol-5-ol]
efficacy in treating cocaine abuse and dependence [1]: ineffective
inhibition at 10 µM [2]: 99.5%
inhibition at 10 µM [3]: 98.2%
inhibition at 10 µM [4]: 89.5%
affinity for κ-opioid receptors [5]: modest affinity
